Reference: article PMC9586930, “Molecular insights into the distinct signaling duration for the peptide-induced PTH1R activation” (Nature Communications, 2022)
Non-standard residues stand in square brackets, D forms with d. Residues, ends and D or L forms follow the SMILES beside them. No end group written: not given here. Aib = CC(C)(N)C(=O)O

Target: T1, WT PTH1R (Homo sapiens, UniProt Q03431)
T1 construct: a flag-tag was fused to the N terminal of full-length PTH1R (WT or mutant); expressed in transfected cells; host or cells: HEK293T
T1 sequence (Q03431 27-593): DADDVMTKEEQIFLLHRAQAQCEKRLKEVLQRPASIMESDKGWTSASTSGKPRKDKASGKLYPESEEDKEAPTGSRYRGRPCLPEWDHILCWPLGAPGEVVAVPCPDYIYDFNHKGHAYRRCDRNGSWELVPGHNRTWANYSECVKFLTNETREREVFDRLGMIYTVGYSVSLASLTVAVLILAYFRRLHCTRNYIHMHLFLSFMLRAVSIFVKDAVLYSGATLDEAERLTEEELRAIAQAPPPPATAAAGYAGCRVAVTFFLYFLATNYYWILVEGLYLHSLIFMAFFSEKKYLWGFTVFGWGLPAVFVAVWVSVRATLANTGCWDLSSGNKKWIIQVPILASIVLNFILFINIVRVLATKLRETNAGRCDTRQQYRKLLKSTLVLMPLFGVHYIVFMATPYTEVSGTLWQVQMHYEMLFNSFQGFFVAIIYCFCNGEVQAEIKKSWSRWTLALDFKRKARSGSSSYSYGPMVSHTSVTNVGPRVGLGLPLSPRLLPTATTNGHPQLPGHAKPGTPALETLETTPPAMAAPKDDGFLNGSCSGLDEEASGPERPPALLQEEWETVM
Assay: cAMP accumulation assay (GloSensor), wild-type PTH1R
Format: cell-based
Conditions: HEK293T cells; for Emax: from curve fitting dose-response data; for EC50: half-maximal stimulatory concentration from curve fitting dose-response data
Experimental: Human embryonic kidney 293 T (HEK293T, ATCC: CRL-1573) cells were transfected with a plasmid mixture consisting of pcDNA3.1-flag-PTH1R (WT or mutants) and the cAMP biosensor GloSensor-22F (Promega) at a ratio of 2:1 (see Supplementary Table 7 for a list of primers used in this study). After 24 h, transfected cells were plated onto a 384-well plate, which was treated with cell adherent reagent (Applygen) in advance. After another 12 h, cells were treated with Hank’s balanced salt solution for starvation and then incubated in CO2-independent media containing 4% GloSensor cAMP Reagent (Promega) at a volume of 5 μl per well and incubated for 20 min at RT before measurements for baseline luminescence (Spark Multimode microplate reader, TECAN). Next, test ligands were added at different concentrations from 10^−6 to 10^−13 M before second measurement. Finally, data were normalized to 100% of the maximal PTH (1-34) response for WT PTH1R using a sigmoidal dose-response in GraphPad Prism.
Statistical analyses were performed on at least three individual datasets and analysed using GraphPad Prism software. Bars represent differences in the calculated agonist potency (pEC50) and maximum agonist response (Emax) for each mutant relative to the WT receptor. Data are mean± s.e.m. from at least three independent experiments, performed in triplicates. ns, not significant, ^nsP > 0.01; ^*P < 0.01; ^**P < 0.001; ^***P < 0.0001 (one-way analysis of variance (ANOVA) followed by Dunnett’s test, compared with the response of the WT). For dose-response experiments, data were normalized and analyzed using nonlinear curve fitting for the log (agonist) versus response (three parameters) curves.

| Compound | Emax | EC50 [nM] |
| --- | --- | --- |
| CSCC[C@H](NC(=O)[C@H](CC(C)C)NC(=O)[C@H](CCC(N)=O)NC(=O)[C@H](Cc1c[nH]cn1)NC(=O)[C@H](CCC(=O)O)NC(=O)[C@H](CO)NC(=O)[C@@H](NC(=O)[C@@H](N)CO)C(C)C)C(=O)N[C@@H](Cc1c[nH]cn1)C(=O)N[C@@H](CC(N)=O)C(=O)N[C@@H](CC(C)C)C(=O)NCC(=O)N[C@@H](CCCCN)C(=O)N[C@@H](Cc1c[nH]cn1)C(=O)N[C@@H](CC(C)C)C(=O)N[C@@H](CC(N)=O)C(=O)N[C@@H](CO)C(=O)N[C@@H](CCSC)C(=O)N[C@@H](CCC(=O)O)C(=O)N[C@@H](CCCNC(=N)N)C(=O)N[C@H](C(=O)N[C@@H](CCC(=O)O)C(=O)N[C@@H](Cc1c[nH]c2ccccc12)C(=O)N[C@@H](CC(C)C)C(=O)N[C@@H](CCCNC(=N)N)C(=O)N[C@@H](CCCCN)C(=O)N[C@@H](CCCCN)C(=O)N[C@@H](CC(C)C)C(=O)N[C@@H](CCC(N)=O)C(=O)N[C@@H](CC(=O)O)C(=O)N[C@H](C(=O)N[C@@H](Cc1c[nH]cn1)C(=O)N[C@@H](CC(N)=O)C(=O)N[C@@H](Cc1ccccc1)C(=O)O)C(C)C)C(C)C [PTH(I5H)] | – | 23.6 |
| AVAEHQLMHNRAKWIQDARRRAFLHKLIAEIHTAEI [LAPTH(I5H;Q10N)] | 117.7 luminescence counts per 500ms | 1.4 |
| AVAEHQLMHQRAKHIQDARRRAFLHKLIAEIHTAEI [LAPTH(I5H;W14H)] | 117.8 luminescence counts per 500ms | 0.493 |
| AVAEHQLMHQRAKWIQDARRRAFLHKLIAEIHTAEI [LAPTH(I5H)] | – | 0.183 |
| AVAEHQLMHQRAKWLNSMERVEWLRKKLQDVHNF [LAPTH(1-14,I5H)/PTH(15-34)] | 129.6 luminescence counts per 500ms | 0.643 |
| AVAEHQLMHQRGKWIQDARRRAFLHKLIAEIHTAEI [LAPTH(I5H;A12G)] | 129.5 luminescence counts per 500ms | 2.08 |
| AVAEIQLLMHQRAKSIQDARRRAFLHKLIAEIHTAEI [LAPTH(W14H)] | 107.5 luminescence counts per 500ms | – |
| AVSEHQLMHQRAKWIQDARRRAFLHKLIAEIHTAEI [LAPTH(I5H;A3S)] | 125.3 luminescence counts per 500ms | 0.39 |
| SVAEHQLMHQRAKWIQDARRRAFLHKLIAEIHTAEI [LAPTH(I5H;A1S)] | 119.8 luminescence counts per 500ms | 1.84 |
| SVSEHQLMHNLGKHIQDARRRAFLHKLIAEIHTAEI [LA-PTH (I5H-PTH;NT)] | 102.1 luminescence counts per 500ms | 1.98 |

The remaining compounds from weak to strong by EC50, led by results:

| Emax | EC50 [nM] | Compound |
| --- | --- | --- |
| – | 3.45 | AVAEIQLLHQRAKWIQDARRRAFLHKLIAEIHTAEI [LAPTH(M8L)] |
| 106.9 luminescence counts per 500ms | 2.08 | AVAEHQLMHQLAKWIQDARRRAFLHKLIAEIHTAEI [LAPTH(I5H;R11L)] |
| 142.8 luminescence counts per 500ms | 1.76 | AVAEHQLMHQRAKWIQDLRRRFFLHHLIAEIHTAEI-NH2 [LAPTH(1-14,I5H)/PTHrP(15-34)] |
| 104.1 luminescence counts per 500ms | 0.32 | CC[C@H](C)[C@H](NC(=O)[C@H](CO)NC(=O)[C@H](CCCCN)NC(=O)CNC(=O)[C@H](CCCCN)NC(=O)[C@H](CC(=O)O)NC(=O)[C@H](Cc1c[nH]cn1)NC(=O)[C@H](CC(C)C)NC(=O)[C@H](CC(C)C)NC(=O)[C@H](CCC(N)=O)NC(=O)[C@@H](NC(=O)[C@H](CCC(=O)O)NC(=O)[C@H](CO)NC(=O)[C@@H](NC(=O)[C@H](C)N)C(C)C)[C@@H](C)CC)C(=O)N[C@@H](CCC(N)=O)C(=O)N[C@@H](CC(=O)O)C(=O)N[C@@H](CC(C)C)C(=O)N[C@@H](CCCNC(=N)N)C(=O)N[C@@H](CCCNC(=N)N)C(=O)N[C@@H](CCCNC(=N)N)C(=O)N[C@@H](CCC(=O)O)C(=O)N[C@@H](CC(C)C)C(=O)N[C@@H](CC(C)C)C(=O)N[C@@H](CCC(=O)O)C(=O)N[C@@H](CCCCN)C(=O)N[C@@H](CC(C)C)C(=O)N[C@@H](CC(C)C)C(=O)NC(C)(C)C(=O)N[C@@H](CCCCN)C(=O)N[C@@H](CC(C)C)C(=O)N[C@@H](Cc1c[nH]cn1)C(=O)N[C@H](C(=O)N[C@@H](C)C(N)=O)[C@@H](C)O [ABL(H5I)] (H-AVSEIQLLHDKGKSIQDLRRRELLEKLL[Aib]KLHTA-NH2) |
